Reference: ChEMBL document CHEMBL4219123, “Synthesis of new analogs of tetraiodothyroacetic acid (tetrac) as novel angiogenesis inhibitors for treatment of cancer” (Bioorg Med Chem Lett, 2018)
The source made the active and inactive calls. The rule behind the calls is not given here.

These compounds were tested on Mus musculus (assay: Antiangiogenic activity in C57/B6 mouse injected with matrigel containing murine vascular growth factor assessed as reduction in hemoglobin content in matrigel plug at 10ug/10ull to 200 uL matrigel administered subcutaneously measured after 14 days by spectrophotometry-based Drabkin method).
Format: functional, organism-based
In the case of `O=C(O)Cc1cc(I)c(Oc2cc(I)c(OCc3cccnc3)c(I)c2)c(I)c1`, the Activity is reported as “Active”.
For `O=C(O)Cc1cc(I)c(Oc2cc(I)c(OCCCc3ccccc3)c(I)c2)c(I)c1`, the Activity was “Active”.
`O=C(O)Cc1cc(I)c(Oc2cc(I)c(OCCCN3C(=O)c4ccccc4C3=O)c(I)c2)c(I)c1` was tested, and the Activity was “Active”.
With `O=C(O)Cc1cc(I)c(Oc2cc(I)c(OCCN3C(=O)c4ccccc4C3=O)c(I)c2)c(I)c1` the Activity was “Active”.
In the case of `O=C(O)Cc1cc(I)c(Oc2cc(I)c(O)c(I)c2)c(I)c1`, the Activity is reported as “Active”.
With `C#CCOc1c(I)cc(Oc2c(I)cc(CC(=O)O)cc2I)cc1I` the Activity was “Active”.
